The source of these data is ChEMBL document CHEMBL1201862, “PubChem BioAssay data set” (2004).

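Cells were grown in 96-well plates and exposed to each compound for 48 hours at five concentrations; endpoints were interpolated linearly between bracketing concentrations, or set to the highest concentration if not reached. Here, GI50 denotes the concentration required for 50% inhibition of growth.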 Active and inactive are the calls of the source. No stated cut-off is given here; in the data, active = GI50 up to about 1.1 µM and inactive = higher.

Test systems include DMS-273; M19-MEL; DMS-114; XF498; KM-20L2; DLD-1; HOP-18; RXF 631; T47D.
Experiment in all cases: inhibition of tumour cell growth, NCI panel, 48 h

On to `CCOC(=O)Cn1c(=O)n(C)c(=O)c2c1ncn2Cc1ccccc1`, for which the GI50 is > 100 µM (inactive) with DMS-273; > 100 µM (inactive) in the test on M19-MEL; > 100 µM (inactive) in the test on DMS-114; 98.2 µM (inactive) in the test on XF498; > 100 µM (inactive) in the test with KM-20L2; > 100 µM (inactive) with DLD-1.

On to `CC(Oc1ccc(OCC2CCCCC2)cc1)C(=O)NCCO` (stereo unspecified), for which the GI50 was > 100 µM (inactive) in the test with HOP-18; > 100 µM (inactive) in the test on DMS-273; > 100 µM (inactive) in the test on M19-MEL; 39.8 µM (inactive) with DMS-114; > 100 µM (inactive) in the test with DLD-1.

`OCCCCn1cnc2c(O)ncnc21`: the GI50 with HOP-18, in the test with M19-MEL, with DMS-114, with KM-20L2 and in the test on DLD-1 was > 100 µM (inactive) each time.

Turning to `CC(C)=CC(=O)Cc1nc2cc(C)c(C)cc2[nH]c1=O`, the GI50 with HOP-18, with DMS-273, in the test on M19-MEL, in the test on RXF 631, in the test with KM-20L2 and in the test on DLD-1 was > 100 µM (inactive) each time.

Take `C=CCCc1cc(OC)ccc1CN(C)C(C)(C)CO`: the GI50 with HOP-18, in the test on DMS-273, in the test on M19-MEL, in the test on DMS-114, in the test with KM-20L2 and in the test with DLD-1 was > 100 µM (inactive) in each case.

Regarding `Sc1nnc(COc2ccc(Cl)cc2)[nH]1`, the GI50 in the test with DMS-273, in the test on M19-MEL, in the test on DMS-114, in the test with RXF 631, in the test with KM-20L2 and in the test with DLD-1 was > 100 µM (inactive) in each case.

As to `COc1ccc([C@@H]2CC(=O)N2)cc1`, the GI50 in the test with HOP-18, in the test with DMS-273, in the test with DMS-114, in the test with XF498, in the test on KM-20L2 and in the test with DLD-1 was > 100 µM (inactive) throughout.

In the case of `CC(=O)OC1CCCn2c1nc1c2C(=O)C(C)=C(N2CC2)C1=O` (stereo unspecified), the GI50 is 0.348 µM (active) with HOP-18; 0.15 µM (active) in the test with DMS-273; 0.392 µM (active) in the test with M19-MEL; 0.771 µM (active) with DMS-114; 0.234 µM (active) in the test with XF498; 0.45 µM (active) in the test with KM-20L2. In the test with DLD-1, the GI50 was 0.583 µM (active).

Consider `CN(C)/N=N/c1ccc(C(N)=O)cc1`, for which the GI50 with HOP-18, with DMS-273, with M19-MEL, in the test with DMS-114, in the test with XF498 and with KM-20L2 was > 100 µM (inactive) each time. Also, the GI50 with DLD-1 was > 100 µM (inactive).

`CC(C)=Cc1cc(C(=O)NCCNC(=O)c2cc(C=C(C)C)nc(NC#N)n2)nc(NC#N)n1`: the GI50 in the test on HOP-18, in the test with M19-MEL, in the test on DMS-114, in the test on XF498 and with KM-20L2 was > 100 µM (inactive) throughout.

`CC(C)C(Sc1nc(-c2ccccc2)c(-c2ccccc2)[nH]1)C(=O)NN` (stereo unspecified): the GI50 with DMS-273 was > 100 µM (inactive); with M19-MEL it was > 100 µM (inactive); with DMS-114, 99.8 µM (inactive); in the test on XF498, 72.8 µM (inactive); with KM-20L2, > 100 µM (inactive); in the test with DLD-1 it was > 100 µM (inactive).

As to `COc1cc(C(=O)Nc2cccc3ccccc23)c(Br)c(OC)c1OC`, the GI50 in the test with HOP-18 is 4.33 µM (inactive); in the test with M19-MEL, 58.6 µM (inactive); in the test with DMS-114, 30.7 µM (inactive); with RXF 631, > 100 µM (inactive); in the test with KM-20L2, > 100 µM (inactive); in the test with DLD-1 it was > 100 µM (inactive).

As to `CSc1nc2nc(C(O)C(O)C(O)CO)cnc2c(=O)[nH]1` (stereo unspecified), the GI50 in the test on DMS-273, in the test on M19-MEL, in the test with DMS-114, in the test on XF498, in the test on KM-20L2 and in the test with DLD-1 was > 100 µM (inactive) each time.

With `CC1=NN(C(=O)c2ccc(Cl)cc2)C(=O)/C1=C/c1ccc(Cl)cc1`, the GI50 in the test on M19-MEL, with DMS-114, in the test on XF498, in the test with KM-20L2 and with DLD-1 was > 100 µM (inactive) in each case.

Take `Cc1ccc(C2=C(c3ccccc3)C(=O)C(c3ccccc3)=C2c2ccc(C)cc2)cc1`: the GI50 in the test with HOP-18 is > 100 µM (inactive); in the test with M19-MEL, 41.1 µM (inactive); in the test with XF498, 35.3 µM (inactive); in the test on KM-20L2, 45.8 µM (inactive); in the test with DLD-1, 41.2 µM (inactive).

As for `CN(C)CC1CCC(CN(C)C)C(=O)C1=O` (stereo unspecified), the GI50 is 1.5 µM (inactive) with HOP-18; 15.8 µM (inactive) in the test on DMS-273; 19 µM (inactive) with M19-MEL; 6.62 µM (inactive) with DMS-114; 2.54 µM (inactive) with XF498; 2.31 µM (inactive) in the test on T47D. In addition, the GI50 with KM-20L2 is 16.4 µM (inactive); with DLD-1, 3.05 µM (inactive).

`COC(=O)c1cc(C)c(C)c2c1NC(=O)CNC2=O`: the GI50 in the test on DMS-273, in the test on M19-MEL, with DMS-114, in the test with XF498, in the test with KM-20L2 and in the test with DLD-1 was > 100 µM (inactive) throughout.

With `CCN(CC)CCNC(=O)c1cccc2nc3ccccc3nc12`, the GI50 in the test on HOP-18 is > 26.4 µM (inactive); in the test with DMS-273, 7.26 µM (inactive); with DMS-114 it was 7.85 µM (inactive); with KM-20L2 it was 13.6 µM (inactive); in the test with DLD-1, > 26.7 µM (inactive).

As to `CC1OC(=O)N(CCCC=C2SCCCS2)C1=O` (stereo unspecified), the GI50 in the test on HOP-18, with DMS-273, in the test with M19-MEL, with DMS-114, with XF498 and with KM-20L2 was > 100 µM (inactive) in each case.

For the compound `CC(O[Si](C)(C)C(C)(C)C)[C@H](NC(=O)OCC(Cl)(Cl)Cl)C(=O)O` (stereo partly specified), the GI50 with T47D is > 100 µM (inactive).

In the case of `C[S+]([O-])c1ccc(COP(N)(=O)N(CCCl)CCCl)cc1` (stereo unspecified), the GI50 in the test with DMS-273, with M19-MEL, with DMS-114, with XF498, in the test on KM-20L2 and in the test on DLD-1 was > 100 µM (inactive) each time.

Regarding `CC1(C)Oc2ccc3c(=O)cc(-c4ccccc4)oc3c2C1C(=O)O` (stereo unspecified), in the test with T47D, the GI50 was > 100 µM (inactive).

With `O=C(O)c1cc2c(cc1CC(Cc1ccccc1)C(=O)O)CCC2` (stereo unspecified), the GI50 in the test with T47D is > 100 µM (inactive).

Regarding `Cc1ccc2cccc3c2c1CC1(C3=O)S(=O)(=O)OCCOS1(=O)=O`, in the test with T47D, the GI50 was > 100 µM (inactive).

In the case of `CC[C@H](C)C(=O)O[C@H]1CCC=C2C=C[C@H](C)[C@H](CC[C@@H]3C[C@@H](O)CC(=O)O3)[C@H]21` [MEVASTATIN], the GI50 with T47D is > 82.8 µM (inactive).

As to `O=S(=O)(O)CCCC1S(=O)(=O)OCCOS1(=O)=O`, the GI50 in the test on T47D was > 100 µM (inactive).

With `Cc1cc2ccccc2n2c1nc1ccc(O)cc12`, the GI50 in the test with T47D is > 10 µM (inactive).

On to `FC(F)(F)c1ccc2c(c1)nc(-c1ccccc1)n2CC1CCCN2CCCCC12` (stereo unspecified), for which the GI50 in the test with T47D is 20 µM (inactive).
